Measurements: patent publication US20070191299A1, “Extension Of The Expression of Transgenic Proteins By Immunomodulation” (priority 1997, published 2007)

How the values were obtained:
[1] = test system: antibodies after recombinant adenovirus vector administration; assay: Formation of antibodies after vector administration (Example 1); type: in vivo; conditions: mice; cyclosporin A 50-100 mg/kg/day, DSG 10 mg/kg/day for 21 days after recombinant adenovirus
Procedure: Cyclosporin A (50-100 mg/kg/day) and DSG (10 mg/kg/day) was administered to the mice over a period of 21 days after administration of a recombinant adenovirus (reporter gene β-galactosidase; Bett et al. Proc. Natl. Acad. Sci. USA, 91 (1994), pages 8802-8806).
In the control group, it was possible to detect the formation of antibodies even 5 days after vector administration.

[2] = test system: reporter gene β-galactosidase expression in the liver; assay: Reporter gene (β-galactosidase) expression in the liver after recombinant adenovirus administration (Example 1); type: in vivo, mice
[3] = test system: antibody load against viral proteins; assay: Mean antibody titer against viral proteins after adenovirus administration (Example 2); type: in vivo; conditions: NMRI mice
Procedure: (§1) On day 0, all mice were administered-a dose of 1×10^10 adenoviruses via the tail vein. The recombinant adenoviruses carry the gene for human alpha 1-antitrypsin as a reporter gene found in the serum. This gene has proven to be a practicable reporter, since it is not antigenic in the mouse, but nevertheless can be differentiated from murine alpha 1-antitrypsin using a specific antibody. The half-life of the antiprotease is approximately 3-4 days, so that the serum level reflects the current synthesis capacity of the liver very well.
(§2) The total collective was subdivided into five groups of 4 animals each, which were treated as follows: • 1st group: control group—no immunosuppressant treatment, administration of saline solution i.p. for the period of 5 days after virus administration. • 2nd . group: FK 506 group—administration of 1 mg/kg/day of FK 506 i.p. beginning 1 day before virus administration and then for a period of 5 days. • 3rd group: cyclosporin A group—administration of 20 mg/kg/day i.p. beginning 1 day before virus administration and then for a period of 5 days. • 4th group: DSG group—administration of 10 mg/kg/day i.p. beginning 1 day before virus administration and then for the period of 5 days. • 5th group: DSG++ group—administration of 10 mg/kg/day i.p. beginning 1 day before virus administration and then daily for the period of five days and then twice weekly for the period of 150 days.
(§3) NMRI mice were used, since these mice, due to their genetic heterogeneity, develop an immunological reaction pattern which approaches that of a human population more closely than pure inbred strains; the price is an increased variability in the immunological reactivity. In spite of this, the individual groups develop significant reaction patterns.
The quantitative factor 15 days after discontinuing DSG is approximately 1.8. Continuous treatment (2× weekly) is no longer able to increase this effect dramatically. […] Even the transient administration of DSG reduces the antibody response in comparison with the control by more than 60% with, at the same time, a markedly positive effect on expression.

[4] = test system: human alpha 1-antitrypsin reporter gene expression; assay: Serum level of human α1-antitrypsin reporter after adenovirus administration (Example 2); type: in vivo; set-up: average serum level of human α1-antitrypsin: unit not given here; conditions: NMRI mice
Procedure: as §1, §2, §3

[5] = mice treated with DSG only for 5 days after vector administration, 42nd day after vector administration
[6] = day 30, DSG++ group: 10 mg/kg/day i.p. from 1 day before virus, daily for five days, then twice weekly for 150 days
[7] = day 30, i.p. from 1 day before virus then for 5 days (FK 506 1, cyclosporin A 20, DSG 10 mg/kg/day)
[8] = day 100, DSG++ group: 10 mg/kg/day i.p. from 1 day before virus, daily for five days, then twice weekly for 150 days
[9] = day 100, i.p. from 1 day before virus then for 5 days (FK 506 1, cyclosporin A 20, DSG 10 mg/kg/day)
[10] = day 150, DSG++ group: 10 mg/kg/day i.p. from 1 day before virus, daily for five days, then twice weekly for 150 days
[11] = day 150, i.p. from 1 day before virus then for 5 days (FK 506 1, cyclosporin A 20, DSG 10 mg/kg/day)
[12] = day 200, DSG++ group: 10 mg/kg/day i.p. from 1 day before virus, daily for five days, then twice weekly for 150 days
[13] = day 200, i.p. from 1 day before virus then for 5 days (FK 506 1, cyclosporin A 20, DSG 10 mg/kg/day)
[14] = day 5, i.p. from 1 day before virus then for 5 days (FK 506 1, cyclosporin A 20, DSG 10 mg/kg/day)
[15] = day 10, i.p. from 1 day before virus then for 5 days (FK 506 1, cyclosporin A 20, DSG 10 mg/kg/day)
[16] = day 20, i.p. from 1 day before virus then for 5 days (FK 506 1, cyclosporin A 20, DSG 10 mg/kg/day)
[17] = day 60, i.p. from 1 day before virus then for 5 days (FK 506 1, cyclosporin A 20, DSG 10 mg/kg/day)

Cl.Cl.Cl.N=C(N)NCCCCCCC(=O)NC(O)C(=O)NCCCCNCCCN (stereo not shown) [DSG, 1-amino-19-guanidine-11-hydroxy-4,9,12-triazanondecane-10,13-dione trihydrochloride]
antibody production [1]: completely eliminated | proportion of animals with expression still measurable [2, 5]: approximately 50% | reporter gene expression relative to the maximal expression [2, 5]: approximately 10% | reporter gene expression after discontinuing the immunosuppressants ([2]; mice, 21 days after discontinuing 21-day treatment (42 days after vector administration)): a massive gene expression was still detectable | reporter gene expression in the liver over the treatment period ([2]; mice, cyclosporin A 50-100 mg/kg/day, DSG 10 mg/kg/day for 21 days after recombinant adenovirus, treatment period of 21 days): continues undecreased | reduction of antibody load against viral proteins ([3]; continuous DSG treatment (2× weekly), after 150 days): approximately 90% | Mean antibody titer [3, 6]: 13005 | Mean antibody titer [3, 7]: 26310 | Mean antibody titer [3, 8]: 11251 | Mean antibody titer [3, 9]: 31029 | Mean antibody titer [3, 10]: 7335 | Mean antibody titer [3, 11]: 25149 | Mean antibody titer [3, 12]: 9669 | Mean antibody titer [3, 13]: 20586 | reduction of antibody response in comparison with the control ([3]; transient administration of DSG (5 days)): more than 60% | effect on antitrypsin expression ([4]; 5-day treatment with DSG): marked increase and prolongation of antitrypsin expression | quantitative factor (transgenic expression product of immunosuppressed group / nonimmunosuppressed control group) ([4]; 15 days after discontinuing DSG (5-day treatment, 10 mg/kg/day i.p.)): approximately 1.8 | expression with continuous treatment compared with transient administration ([4]; continuous DSG treatment (2× weekly) versus transient administration): only slightly increased | average serum level of human α1-antitrypsin ([4]; day 5, DSG++ group: 10 mg/kg/day i.p. from 1 day before virus, daily for five days, then twice weekly for 150 days): 2775000 | average serum level of human α1-antitrypsin [4, 14]: 2775000 | average serum level of human α1-antitrypsin ([4]; day 10, DSG++ group: 10 mg/kg/day i.p. from 1 day before virus, daily for five days, then twice weekly for 150 days): 677500 | average serum level of human α1-antitrypsin [4, 15]: 1560000 | average serum level of human α1-antitrypsin ([4]; day 20, DSG++ group: 10 mg/kg/day i.p. from 1 day before virus, daily for five days, then twice weekly for 150 days): 1178750 | average serum level of human α1-antitrypsin [4, 16]: 1826250 | average serum level of human α1-antitrypsin [4, 6]: 1082500 | average serum level of human α1-antitrypsin [4, 7]: 1001250 | average serum level of human α1-antitrypsin ([4]; day 60, DSG++ group: 10 mg/kg/day i.p. from 1 day before virus, daily for five days, then twice weekly for 150 days): 297500 | average serum level of human α1-antitrypsin [4, 17]: 213500 | average serum level of human α1-antitrypsin [4, 8]: 68750 | average serum level of human α1-antitrypsin [4, 9]: 51750 | average serum level of human α1-antitrypsin [4, 10]: 17125 | average serum level of human α1-antitrypsin [4, 11]: 13125 | average serum level of human α1-antitrypsin [4, 12]: 14350 | average serum level of human α1-antitrypsin [4, 13]: 10625

C=CC[C@@H]1/C=C(\C)C[C@H](C)C[C@H](OC)[C@H]2O[C@@](O)(C(=O)C(=O)N3CCCC[C@H]3C(=O)O[C@H](/C(C)=C/[C@@H]3CC[C@@H](O)[C@H](OC)C3)[C@H](C)[C@@H](O)CC1=O)[C@H](C)C[C@@H]2OC [FK 506]
Mean antibody titer [3, 7]: 65536 | Mean antibody titer [3, 9]: 43832 | Mean antibody titer [3, 11]: 25149 | Mean antibody titer [3, 13]: 17710 | average serum level of human α1-antitrypsin [4, 14]: 1725000 | average serum level of human α1-antitrypsin [4, 15]: 1278750 | average serum level of human α1-antitrypsin [4, 16]: 376250 | average serum level of human α1-antitrypsin [4, 7]: 17475 | average serum level of human α1-antitrypsin [4, 17]: 4258 | average serum level of human α1-antitrypsin [4, 9]: 313 | average serum level of human α1-antitrypsin [4, 11]: 1.5 | average serum level of human α1-antitrypsin [4, 13]: 1.5
